In article PMC7351026, “Serum Half-Lives for Short- and Long-Chain Perfluoroalkyl Acids after Ceasing Exposure from Drinking Water Contaminated by Firefighting Foam” (Environmental Health Perspectives, 2020):

What was measured:
[1] = PFAS levels in serum samples of airport employees (LC/MS/MS)
Description: All 26 employees at the airport were invited for a blood sampling between 11 and 14 September 2018 (i.e., within 11 to 14 d after the termination of contaminated drinking-water exposure). Information on age, home address, employment history, working tasks, and sick leave and vacation days in August and September were collected by questionnaire. In addition, data on the number of glasses of water consumed per day, local fish consumption, and history of blood donation and medication were collected. For female employees, questions about menstruation, pregnancy, and duration of breast-feeding were asked.
The PFAS analysis in serum from the first sampling was immediately performed and personal results were reported to the employees. […] These 17 employees submitted four rounds of blood and first morning urine samples in parallel, at 1-month intervals. In total, there were five rounds of serum sampling (started from September) and four rounds of urine sampling (from October). For modeling of elimination, all samples were reanalyzed in a single batch. We obtained 83 serum samples with a median count of 5 (range: 4–5) samples per employee, and 59 urine samples with median of 4 (range: 1–4) samples per employee. Only one employee provided a single urine sample. The study was approved by the Regional Ethical Review Board in Lund, Sweden. All employees provided written informed consent.
Venous whole blood samples were obtained and were centrifuged for 10 min at 1,500×g at room temperature to isolate the serum on site. The serum samples were collected in 6-mL BD Vacutainer® Plus plastic serum tubes without gel (BD). Urine samples were collected in 13-mL polypropylene screw cap tubes (Sarstedt). Serum and urine samples were frozen at −20°C after sampling and transported to Lund using cold chain logistics. Serum and urine samples were stored at −80°C and −20°C , respectively, before analysis.
The serum samples, QC samples, and chemical blanks were prepared in 96-well plates with 1.5-mL flat-bottom glass vials (Biotech solutions). Serum samples were thawed for 1–2 h and mixed on a vortex shaker for approximately 10 s two times. Once after all samples were thawed and a second time before pipetting the serum to the plate. Before pipetting, the tip was pre-wetted several times, drawing a volume into the tip and dispensing it back into the tube. Sample preparation procedures for serum samples consisted of 25μL serum mixed with 25μL water, 25μL methanol, 25μL isotopically labeled internal standards in 50% acetonitrile (see Table S1), and 100μL acetonitrile. Thereafter, samples were mixed vigorous by shaking for 30 min and centrifuged at 2,600×g for 10 min at room temperature. The supernatant ( 0.2mL ) was transferred to 96-well plates with 0.5-mL conical glass vials (MicroLiter Analytical Supplies) and again centrifuged at 3,000×g for 10 min before analysis. The QC samples and chemical blanks were prepared following the same procedure as the serum samples. The calibration standards were prepared in FBS the same way as the samples, except for the addition of diluted reference standards of all analyzed compounds in 25μL of the methanol solution.
Aliquots of 4μL of the sample were analyzed using LC/MS/MS. For the analysis, a C18 column ( 4μm , 2.1mm i.d.×50mm , Genesis Lightning) was used prior to the injector to filter the mobile phases. The analytical column was an Aquity BEH ( 1.7μm , 2.1mm i.d.×100mm Waters). The mobile phases (A and B) were A: 5 mM ammonium acetate in water:methanol (50:50); and B: methanol. The mobile phase was kept at 0% B for 2.5 min after injection. A gradient was then applied over 11 min to 90% B, where it was then kept for 1.5 min. The column was then conditioned at 0% B for 2 min.

[2] = Individual serum elimination rate and half-life (linear regression per employee); settings: individual estimate;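 as to HL (half-life): half-life in years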
Procedure: Serum PFAS concentrations were log-transformed. Time was calculated as the elapsed days between supply of clean bottled water and […] blood sampling. We assumed one compartment, first-order elimination kinetics. In this kinetic model, the body is considered as one homogeneous volume in which mixing is instantaneous and from which PFAS could be absorbed, transferred, and eliminated according to the rate of elimination that is proportional to the concentration of PFAS in the body. Two methods were used to estimate serum elimination rate constant (k) and half-life for each PFAS:
Method 2: For estimation of individual k, linear regression was used to derive the slope ( β ) of the logarithm of serum concentrations vs. time for each employee. The negative value of the slope ( −β ) for each individual was equivalent to the individual k, and individual serum elimination half-life was calculated as ln2/k for each PFAS. If β was positive (i.e., PFAS concentrations tended to increase over the five samplings), the half-life was not calculated.

[3] = 1st sampling (September 2018), count 17
[4] = 2nd sampling (October 2018), count 17
[5] = 3rd sampling (November, 2018), count 17
[6] = 4th sampling (December 2018), count 16
[7] = 5th sampling (January 2019), count 16
[8] = median of first serum samples, all 26 airport employees

## O=S(=O)(O)C(F)(F)C(F)(F)C(F)(F)C(F)(F)C(F)(F)C(F)(F)C(F)(F)C(F)(F)F [L-PFOS, linear perfluorooctane sulfonic acid]
[1]; [3]
  Serum PFAS level, 25 percentile: 7.7
  Serum PFAS level, 75 percentile: 15
  Serum PFAS level, Max: 28
  Serum PFAS level, Median: 11
  Serum PFAS level, Min: 5.5
[1]; [4]
  Serum PFAS level, 25 percentile: 7.6
  Serum PFAS level, 75 percentile: 16
  Serum PFAS level, Max: 24
  Serum PFAS level, Median: 10
  Serum PFAS level, Min: 4.1
[1]; [5]
  Serum PFAS level, 25 percentile: 7.3
  Serum PFAS level, 75 percentile: 16
  Serum PFAS level, Max: 23
  Serum PFAS level, Median: 11
  Serum PFAS level, Min: 4.7
[1]; [6]
  Serum PFAS level, 25 percentile: 7.4
  Serum PFAS level, 75 percentile: 14
  Serum PFAS level, Max: 24
  Serum PFAS level, Median: 9.8
  Serum PFAS level, Min: 4.4
[1]; [7]
  Serum PFAS level, 25 percentile: 9.1
  Serum PFAS level, 75 percentile: 16
  Serum PFAS level, Max: 23
  Serum PFAS level, Median: 10
  Serum PFAS level, Min: 4.5
[1]; all 26 airport employees
  Serum level in the first samples, median (range): 9.5 (5.4–28) ng/mL
[1]; employees participated in first blood sampling and repeated blood and urine sampling, N=17
  PFAS in first serum sample, median (range): 11 (5.5–28) ng/mL
[1]; employees participated in first blood sampling only, N=9, 11-14 d after end of exposure
  PFAS in first serum sample, median (range): 6.5 (5.4–13) ng/mL
[1]; females (N=7)
  Initial serum PFAS level, max: 13 ng/mL
  Initial serum PFAS level, median: 9.3 ng/mL
  Initial serum PFAS level, min: 5.5 ng/mL
[1]; first serum samples, all 26 airport employees
  Relative composition of PFAS in serum, weight basis: 8.6%
[1]; first serum samples, all 26 airport employees, listed as PFOS (linear)
  Relative composition of PFAS in serum, molar concentration basis: 7.0%
[1]; males (N=19)
  Initial serum PFAS level, Max: 28 ng/mL
  Initial serum PFAS level, Min: 5.4 ng/mL
  Initial serum PFAS level, median: 10 ng/mL
[1]; [8]
  Serum concentration, molar basis: 0.019
  Serum concentration, weight basis: 9.5
[1]; second to fifth samplings, 17 airport employees
  Serum level, median (range): 10 (4.1–24) ng/mL
[2]; subject 1, 5 samples
  Elimination rate: −0.2 yearly
[2]; subject 2, 5 samples
  Elimination rate: 0.4 yearly
  HL (half-life): 1.7 year
[2]; subject 3, 5 samples
  Elimination rate: 0.5 yearly
  HL (half-life): 1.3 year
[2]; subject 4, 5 samples
  Elimination rate: −0.3 yearly
[2]; subject 5, 5 samples
  Elimination rate: 0.6 yearly
  HL (half-life): 1.2 year
[2]; subject 6, 4 samples
  Elimination rate: 0.04 yearly
  HL (half-life): 17 year
[2]; subject 7, 5 samples
  Elimination rate: 0.006 yearly
[2]; subject 8, 5 samples
  Elimination rate: −0.4 yearly
[2]; subject 9, 5 samples
  Elimination rate: 0.4 yearly
  HL (half-life): 1.8 year
[2]; subject 10, 5 samples
  Elimination rate: −0.2 yearly
[2]; subject 11, 5 samples
  Elimination rate: 0.1 yearly
  HL (half-life): 4.7 year
[2]; subject 12, 5 samples
  Elimination rate: 0.8 yearly
  HL (half-life): 0.9 year
[2]; subject 13, 5 samples
  Elimination rate: 0.2 yearly
  HL (half-life): 3.7 year
[2]; subject 14, 4 samples
  Elimination rate: 0.3 yearly
  HL (half-life): 2.0 year
[2]; subject 15, 5 samples
  Elimination rate: 0.5 yearly
  HL (half-life): 1.3 year
[2]; subject 16, 5 samples
  Elimination rate: 0.6 yearly
  HL (half-life): 1.2 year
[2]; subject 17, 5 samples
  Elimination rate: 0.3 yearly
  HL (half-life): 2.1 year
